Laboratory results taken from US12491170B2, “Stable treprostinil prodrugs” (United Therapeutics Corporation, priority 2020, dated 2025).
Like-named read-outs stand apart in the source and are kept apart here. Values belong to the compound of their own block, whether it stands above or below them.

What was measured:
[1] = Stability in liver microsomes, human
Method: (§1) Mixed-gender human liver microsomes, male Sprague-Dawley rat liver microsomes, and male Beagle dog liver microsomes were purchased from XenoTech. The reaction mixture, minus NADPH, was prepared as described below. […] An aliquot of the reaction mixture (without cofactor) was equilibrated in a shaking water bath at 37° C. for 5 minutes. The reaction was initiated by the addition of cofactor, and the mixture was incubated in a shaking water bath at 37° C. Aliquots (200 μL) were withdrawn at 0, 10, 20, 30, and 60 minutes. Test article samples were immediately combined with 400 μL of ice-cold acetonitrile (ACN) to terminate the reaction. […] The samples were then mixed and centrifuged to precipitate proteins. Aliquots of the supernatant were removed, diluted 1:1 into distilled water containing internal standard, and analyzed by LC-MS/MS against calibration standards prepared in a matched matrix. All samples were analyzed for the dosed prodrugs as well as the drug, treprostinil. The test article concentration was compared to the concentration at time 0 to determine the percent of test article remaining at each time point. Half-lives and clearance were calculated using GraphPad software, fitting to a single-phase exponential decay equation.
(§2) • Liver Microsomes 0.5 mg/mL • NADPH (cofactor) 1 mM • Potassium Phosphate, pH 7.4 100 mM • Magnesium Chloride 5 mM • Test Article 1 μM

[2] = Stability in cryopreserved hepatocytes, human
Method: (§3) Mixed-gender human cryopreserved hepatocytes, male Sprague-Dawley rat cryopreserved hepatocytes, and male Beagle dog cryopreserved hepatocytes were purchased from XenoTech. The hepatocytes were thawed and prepared according to the vendor's instructions, pooled into Krebs Henseleit buffer (KHB, pH 7.4), and kept on ice prior to the experiments. […] The final DMSO content in the incubation mixture was ≤0.1%. […] Aliquots of the test article were withdrawn (n=1) at 0, 15, 30, 60, and 120 minutes. […] Aliquots of 7-HC were withdrawn (n=1) at 0 and 15 minutes. The reaction was immediately terminated by adding two volumes of ice-cold acetonitrile (ACN) to the test article samples and three volumes of ACN containing internal standard to the positive control samples. The samples were then mixed and centrifuged to precipitate proteins. An aliquot of the supernatant was then diluted with water and analyzed by LC-MS/MS against calibration standards prepared in a matched matrix. […] All test article samples were analyzed for the dosed prodrugs as well as the drug, treprostinil. The test article concentration was compared to the concentration at time 0 to determine the percent of test article remaining at each time point. Half-lives and clearance values were calculated using GraphPad software, fitting to a single-phase exponential decay equation.

[3] = Stability in cryopreserved hepatocytes, rat
Method: as §3

[4] = Stability in cryopreserved hepatocytes, dog
Method: as §3

[5] = rat
[6] = dog
[7] = Hydrolysis of prodrugs to treprostinil at pH 6, 7, 8 and 40 C; type: physicochemical
Excerpt: Tables 24, 25 and 26 present data for hydrolysis of selected treprostinil prodrugs at pH 6, 7 and 8, respectively, and 40 C.

[8] = Stability in liver microsomes, rat
Method: as §1, §2

[9] = Stability in liver microsomes, dog
Method: as §1, §2

[10] = Stability in human subcutaneous skin homogenate
Method: The pool of skin homogenate was prepared by combining equal volumes of three lots that were tested in the initial skin homogenate lot assessment experiments.
A stock solution of calcein-AM was first prepared at 5 mM in DMSO, followed by a serial dilution into methanol at a concentration of 100 μM. 495 μL of skin homogenate was thawed and warmed to 37° C. A 5 μL aliquot of the 100 μM calcein-AM solution was spiked into the skin homogenate, for a final calcein-AM dosing concentration of 1 μM. After briefly mixing, 150 μL aliquots were removed in triplicate and transferred to 96-well Falcon plates. The plates were placed onto a Thermomixer and maintained at 37° C., with gentle shaking for the duration of the experiment. At each time point (0, 15, 30, 60, and 120 minutes), the plate was removed from the Thermomixer and transferred to a FLUOstar® plate reader, and the formation of calcein (Sigma) was monitored by fluorescence (490/515 nm). Calibration standards of calcein were prepared in distilled water by serial dilutions of a calcein DMSO stock at final concentrations ranging from 1 μM to 1 nM. All samples and standards were read concurrently (Table 13).
For each of the test articles, 495 μL of skin homogenate was added to triplicate centrifuge tubes. To each tube, 5 μL of a 100 μM solution of test article was added, for a final test article dosing concentration of 1 μM. The tubes were placed onto a Thermomixer and maintained at 37° C. with gentle shaking for the duration of the experiment. At each time point (0, 30, 60, and 120 minutes), a 100 μL aliquot was removed from each tube and combined with 200 μL of acetonitrile to stop the stability reaction. The tubes were mixed and centrifuged at 3000 rpm for 10 minutes. Aliquots of supernatant were removed and diluted 1:1 with distilled water containing internal standard (2 μM treprostinil-d4). Calibration standards for the treprostinil analysis were prepared for each test article in a surrogate matrix (supernatant from a mixture of 1:2 human plasma:acetonitrile), at concentrations ranging from 1 μM to 1 nM. Calibration standards were also diluted 1:1 with distilled water containing internal standard. The disappearance of each individual test article was monitored, as well as the formation of treprostinil (Table 14 and Table 15).

AUC ([1]; human): 16.85 µmol·min/L
AUC ([2]; human): 39.76 µmol·min/L
AUC ([3]; rat): 70.03 µmol·min/L
AUC ([4]; dog): 47.99 µmol·min/L
AUC [5]: 49.70 µmol·min/L
AUC [6]: 55.95 µmol·min/L
Compound: CCCCCC(CCC1C(O)CC2Cc3c(cccc3OCC(=O)O)CC21)OC(=O)OC (stereo not drawn) [IV]

Hydrolysis to treprostinil, % Area, t = 1 week ([7]; pH 6, 40 C.): 0.00 % Area
Hydrolysis to treprostinil, % Area, t = 2 weeks ([7]; pH 6, 40 C.): 0.00 % Area
Hydrolysis to treprostinil, % Area, t = 3 weeks ([7]; pH 6, 40 C.): 0.00 % Area
Hydrolysis to treprostinil, % Area, t = 1 week ([7]; pH 7, 40 C.): 0.00 % Area
Hydrolysis to treprostinil, % Area, t = 2 weeks ([7]; pH 7, 40 C.): 0.00 % Area
Hydrolysis to treprostinil, % Area, t = 3 weeks ([7]; pH 7, 40 C.): 0.00 % Area
Hydrolysis to treprostinil, % Area, t = 1 week ([7]; pH 8, 40 C.): 0.00 % Area
Hydrolysis to treprostinil, % Area, t = 2 weeks ([7]; pH 8, 40 C.): 0.00 % Area
Hydrolysis to treprostinil, % Area, t = 3 weeks ([7]; pH 8, 40 C.): 0.00 % Area
Compound: CCCCCC(CCC1C(O)CC2Cc3c(cccc3OCC(=O)O)CC21)OC(=O)c1ccc(O)cc1 (stereo not drawn) [Prodrug LXVIII]

AUC Mono (treprostinil formed) ([1]; human): 16.9 µmol·min/L
AUC Mono (treprostinil formed) ([8]; rat): 49.7 µmol·min/L
AUC Mono (treprostinil formed) ([9]; dog): 56.0 µmol·min/L
Mono AUC (treprostinil formed) ([2]; human): 39.8 µmol·min/L
Mono AUC (treprostinil formed) ([3]; rat): 70.0 µmol·min/L
Mono AUC (treprostinil formed) ([4]; dog): 48.0 µmol·min/L
Mono AUC (treprostinil formed) ([10]; human): 9.59 µmol·min/L
Compound: CCCCCC(CCC1C(O)CC2Cc3c(cccc3OCC(=O)O)CC21)OC(=O)OC (stereo not drawn) [Prodrug IV]

Hydrolysis to treprostinil, % Area, t = 1 week ([7]; pH 6, 40 C.): 0.47 % Area
Hydrolysis to treprostinil, % Area, t = 2 weeks ([7]; pH 6, 40 C.): 1.2 % Area
Hydrolysis to treprostinil, % Area, t = 3 weeks ([7]; pH 6, 40 C.): 1.9 % Area
Hydrolysis to treprostinil, % Area, t = 1 week ([7]; pH 7, 40 C.): 0.05 % Area
Hydrolysis to treprostinil, % Area, t = 2 weeks ([7]; pH 7, 40 C.): 1.0 % Area
Hydrolysis to treprostinil, % Area, t = 3 weeks ([7]; pH 7, 40 C.): 1.5 % Area
Hydrolysis to treprostinil, % Area, t = 1 week ([7]; pH 8, 40 C.): 0.73 % Area
Hydrolysis to treprostinil, % Area, t = 2 weeks ([7]; pH 8, 40 C.): 1.6 % Area
Hydrolysis to treprostinil, % Area, t = 3 weeks ([7]; pH 8, 40 C.): 2.6 % Area
Compound: CCCCCC(CCC1C(O)CC2Cc3c(cccc3OCC(=O)O)CC21)OC(=O)c1ccc(O)c(O)c1 (stereo not drawn) [Prodrug LXVI]

Trep Concentration 0 min [1]: 0.12 µM
Trep Concentration 10 min [1]: 0.184 µM
Trep Concentration 20 min [1]: 0.24 µM
Trep Concentration 30 min [1]: 0.268 µM
Trep Concentration 60 min [1]: 0.275 µM
AUC ([1]; human): 14.33 µmol·min/L
Trep Concentration 0 min [8]: 0.0393 µM
Trep Concentration 10 min [8]: 0.0539 µM
Trep Concentration 20 min [8]: 0.0653 µM
Trep Concentration 30 min [8]: 0.0747 µM
Trep Concentration 60 min [8]: 0.0824 µM
Trep Concentration 0 min [9]: 0.104 µM
Trep Concentration 10 min [9]: 0.16 µM
Trep Concentration 20 min [9]: 0.222 µM
Trep Concentration 30 min [9]: 0.243 µM
Trep Concentration 60 min [9]: 0.342 µM
AUC [5]: 4.12 µmol·min/L
AUC [6]: 14.33 µmol·min/L
Compound: CCCCCC(CCC1C(O)CC2Cc3c(cccc3OCC(=O)O)CC21)OC(=O)c1ccc(OC(F)(F)F)cc1 (stereo not drawn) [LXIII]

Compound: CCCCCC(CCC1C(O)CC2Cc3cccc(OCC(=O)O)c3CC21)OC(=O)CCC(=O)N1CCN(C)CC1 (stereo not drawn) [XXXIV]
Trep Concentration 0 min ([1]; Liver Microsomes, Human, 0 min): 0 µM
Trep Concentration 10 min ([1]; Liver Microsomes, Human, 10 min): 0 µM
Trep Concentration 20 min ([1]; Liver Microsomes, Human, 20 min): 0 µM
Trep Concentration 30 min ([1]; Liver Microsomes, Human, 30 min): 0 µM
Trep Concentration 60 min ([1]; Liver Microsomes, Human, 60 min): 0 µM
AUC ([1]; Liver Microsomes, Human, treprostinil 0-60 min): 0.00 µmol·min/L
Trep Concentration 0 min ([8]; Liver Microsomes, Rat, 0 min): 0 µM
Trep Concentration 10 min ([8]; Liver Microsomes, Rat, 10 min): 0 µM
Trep Concentration 20 min ([8]; Liver Microsomes, Rat, 20 min): 0.0132 µM
Trep Concentration 30 min ([8]; Liver Microsomes, Rat, 30 min): 0.0158 µM
Trep Concentration 60 min ([8]; Liver Microsomes, Rat, 60 min): 0.0224 µM
AUC ([8]; Liver Microsomes, Rat, treprostinil 0-60 min): 0.78 µmol·min/L
Trep Concentration 0 min ([9]; Liver Microsomes, Dog, 0 min): 0 µM
Trep Concentration 10 min ([9]; Liver Microsomes, Dog, 10 min): 0 µM
Trep Concentration 20 min ([9]; Liver Microsomes, Dog, 20 min): 0 µM
Trep Concentration 30 min ([9]; Liver Microsomes, Dog, 30 min): 0 µM
Trep Concentration 60 min ([9]; Liver Microsomes, Dog, 60 min): 0.0104 µM
AUC ([9]; Liver Microsomes, Dog, treprostinil 0-60 min): 0.16 µmol·min/L
AUC ([2]; Hepatocytes, Human, AUC of treprostinil concentration 0-120 min): 1.90 µmol·min/L
Trep Concentration (μM) 0 min ([2]; Hepatocytes, Human, treprostinil formed from test article dosed, 0 min): 0 µM
Trep Concentration (μM) 15 min ([2]; Hepatocytes, Human, treprostinil formed from test article dosed, 15 min): 0 µM
Trep Concentration (μM) 30 min ([2]; Hepatocytes, Human, treprostinil formed from test article dosed, 30 min): 0.0107 µM
Trep Concentration (μM) 60 min ([2]; Hepatocytes, Human, treprostinil formed from test article dosed, 60 min): 0.0174 µM
Trep Concentration (μM) 120 min ([2]; Hepatocytes, Human, treprostinil formed from test article dosed, 120 min): 0.0293 µM
AUC ([3]; Hepatocytes, Rat, AUC of treprostinil concentration 0-120 min): 8.62 µmol·min/L
Trep Concentration (μM) 0 min ([3]; Hepatocytes, Rat, treprostinil formed from test article dosed, 0 min): 0 µM
Trep Concentration (μM) 15 min ([3]; Hepatocytes, Rat, treprostinil formed from test article dosed, 15 min): 0.023 µM
Trep Concentration (μM) 30 min ([3]; Hepatocytes, Rat, treprostinil formed from test article dosed, 30 min): 0.0447 µM
Trep Concentration (μM) 60 min ([3]; Hepatocytes, Rat, treprostinil formed from test article dosed, 60 min): 0.0915 µM
Trep Concentration (μM) 120 min ([3]; Hepatocytes, Rat, treprostinil formed from test article dosed, 120 min): 0.105 µM
AUC ([4]; Hepatocytes, Dog, AUC of treprostinil concentration 0-120 min): 1.30 µmol·min/L
Trep Concentration (μM) 0 min ([4]; Hepatocytes, Dog, treprostinil formed from test article dosed, 0 min): 0 µM
Trep Concentration (μM) 15 min ([4]; Hepatocytes, Dog, treprostinil formed from test article dosed, 15 min): 0 µM
Trep Concentration (μM) 30 min ([4]; Hepatocytes, Dog, treprostinil formed from test article dosed, 30 min): 0.0101 µM
Trep Concentration (μM) 60 min ([4]; Hepatocytes, Dog, treprostinil formed from test article dosed, 60 min): 0.0153 µM
Trep Concentration (μM) 120 min ([4]; Hepatocytes, Dog, treprostinil formed from test article dosed, 120 min): 0.0127 µM
Trep Concentration 0 min ([10]; Skin Homogenate, Human, 0 min): 0 µM
Trep Concentration 30 min ([10]; Skin Homogenate, Human, 30 min): 0 µM
Trep Concentration 60 min ([10]; Skin Homogenate, Human, 60 min): 0 µM
Trep Concentration 120 min ([10]; Skin Homogenate, Human, 120 min): 0 µM
AUC ([10]; Skin Homogenate, Human, treprostinil 0-120 min): 0.00 µmol·min/L

AUC ([1]; human): 0.00 µmol·min/L
AUC ([2]; human): 0.00 µmol·min/L
AUC ([3]; rat): 10.79 µmol·min/L
AUC ([4]; dog): 0.00 µmol·min/L
AUC [5]: 0.39 µmol·min/L
AUC [6]: 0.00 µmol·min/L
Compound: CCCCCC(O)CCC1C(O)CC2Cc3c(cccc3OCC(=O)NCC(=O)O)CC21 (stereo not drawn) [VII]
